From patent US12447216B2, “Biogenic hemin-based MRI contrast agents, and compositions and methods thereof” (University of Massachusetts, priority 2017, dated 2025)

What was measured:
[1] = In vivo MR imaging / MR angiography after tail vein injection; details: nude mice, 2 mg/kg/day, FIG. 2
Method: (§1) FIG. 1 is a graph showing r1 values and 1/T1 values according to Fe concentrations of metalloporphyrin-based MRI-CAs after dispersion in water. […] To further evaluate its MRI performance in vivo, hematin at a dose of 2 mg/kg/day, which is within the recommended range for clinical use, was administered into the tail veins of nude mice.
To study the potential application of HeOH-PEG for in vivo MRI, a series of MR imaging were performed at different time points after HeOH-PEG was injected via tail vein into health node mice (500 μL, 0.48 mmol […] per kg mice). FIG. 11 is the 3D image of MR angiography acquired from the mouse after intravenous injection with HeOH-PEG.
The MR signal enhancement with excellent contrast in the vasculature lasted until 60 min post injection.

[2] = parameters: species or system mice; details: mouse, in vivo, iv
Excerpt: (§2) The biocompatibility of hematin for injection was comprehensively investigated, for example, via blood routine examination, histological analysis, and body weight monitoring.
Another group of mice injected with PBS were used as control.
Meanwhile, blood samples were collected at different intervals after treatment with HeOH-PEG. […] Another group of mice injected of PBS were used as control.

[3] = Body weight monitoring after tail vein injection; type: in vivo; details: mice, versus PBS control, 2 weeks
Excerpt: as §2

[4] = Histological analysis (hematoxylin and eosin) of major organs; type: in vivo; details: mice; 14 days after administration
Method: as §2
Subsequently, hematoxylin and eosin examinations were performed on major organs (e.g., heart, liver, spleen, lung, and kidney) collected from healthy mice and those treated with HeOH-PEG. […] No significant differences were found between the cellular morphology of the studied organs in the HeOH-PEG treated group and the control group (FIG. 10).

[5] = T1 relaxivity (r1) measurement and T1-weighted in vitro MR imaging; type: physicochemical
Method: Hematin was studied for its properties in MR imaging.
as §1
The composition of the prepared He-PEG was confirmed by NMR spectroscopy. […] The ^1H NMR spectrum of the He-PEG nanoparticles confirmed the successful conjugation of He with PEG2000. The magnetic property of the produced He-PEG particles was determined by measuring the longitudinal relaxivity values, which referred to the slope of the 1/T1 (R1) plot versus Fe ion concentration.
FIGS. 5 and 6 show r1 values and 1/T1 values according to Fe concentrations of He—OH after dispersion in water.

[6] = only in a rare case; cited from earlier work

SMILES: C=CC1=C(C)c2cc3[n-]c(cc4[n-]c(cc5nc(cc1n2)C(C)=C5C=C)c(C)c4CCC(=O)O)c(CCC(=O)O)c3C.O.[Fe+2] [hematin]
- T1 signal in vivo after intravenous administration [1]: increase in the T1 signal was clearly observed in the heart and large vessel
- blood routine examination parameters versus normal range [2]: within the normal range
- body weight change [3]: no significant changes compared to the control group
- histological changes in heart, liver, spleen, lung and kidney [4]: no obvious histological changes
- T1 relaxivity value ([5]; 3.0 T MR scanner, dispersion in water, FIG. 1): 0.424 mM⁻¹ s⁻¹
- r1 value (longitudinal relaxivity, slope of 1/T1 versus Fe ion concentration) ([5]; dispersion in water): 0.424 s^−1 mM^−1 Fe
- T1-weighted in vitro MR imaging signal ([5]; various Fe concentrations): concentration-dependent brightening effect
- excessive hematin dose reported to induce reversible renal shutdown [6]: 12.2 mg/kg
